Where two headings read alike, the source gives them in different places.
Legend:
human CB1 receptor = target: T1, human CB1 receptor (Homo sapiens, UniProt P21554); test: CB1 radioligand competitive binding assay ([3H]CP 55,940 displacement)
T1 construct: host or cells: CHO-K1

human CB2 receptor = target: T2, human CB2 receptor (Homo sapiens, UniProt P34972); test: CB2 radioligand competitive binding assay ([3H]CP 55,940 displacement); conditions: for Selectivity CB2: fold difference in selectivity between CB1 and CB2 binding, in the column of the receptor with the higher binding affinity
T2 construct: host or cells: CHO-K1
T2 sequence (P34972 whole entry): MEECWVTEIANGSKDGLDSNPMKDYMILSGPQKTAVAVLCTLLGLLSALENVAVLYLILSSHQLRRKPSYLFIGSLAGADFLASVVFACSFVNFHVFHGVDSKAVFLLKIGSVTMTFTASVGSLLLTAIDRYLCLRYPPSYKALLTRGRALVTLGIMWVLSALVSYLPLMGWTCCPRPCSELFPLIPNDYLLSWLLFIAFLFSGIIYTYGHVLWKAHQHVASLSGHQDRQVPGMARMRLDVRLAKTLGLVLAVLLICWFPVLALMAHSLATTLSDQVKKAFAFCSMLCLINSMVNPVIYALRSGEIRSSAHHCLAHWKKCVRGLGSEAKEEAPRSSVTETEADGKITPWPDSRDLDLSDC
Description: Compounds of the present disclosure were tested for CB1 receptor binding affinity and for CB2 receptor binding affinity. As used herein, “binding affinity” is represented by the IC50 value, which was experimentally determined as described herein. The lower the IC50 value the higher the binding affinity. A compound of the present disclosure may be said to have “binding selectivity” if it has a higher binding affinity for one receptor compared to the other.
The membranes were prepared from CHO-K1 (Chinese hamster ovary) cells stably transfected with the human CB2 receptor (Cat. #ES-111-C; Perkin Elmer, Boston, Mass.). The cells were grown adherently and maintained in Ham's F12 medium containing 10% fetal bovine serum (FBS), penicillin, streptomycin and geneticin (G418) at 37° C. in a humid atmosphere of 5% CO2 following the manufacturer's instructions.
For membrane preparation the cells were washed with PBS and scraped off the plates in cold homogenization buffer (25 mM HEPES (pH 7.4), 2 mM EDTA) containing protease inhibitor cocktail (Sigma Cat. #P8340). The cell suspension was homogenized with a Pro-PK-01200D Polytron Homogenizer (Pro Scientific) and then centrifuged for 30 min at 120,000×g. The supernatant was discarded and the pellet was re-suspended in the homogenization buffer and stored at −80° C. until the time of use.
In this experiment, 3H radiolabeled CP 55,940, i.e. [3H]CP 55,940 (Perkin Elmer, Boston, Mass.), was used as a radioligand for the CB2 receptor to determine the binding affinity of compounds for the CB2 receptor (Scheme 5; above).
The competition binding experiments (single dose and dose-response) were performed by incubating 0.6 nM of [3H]CP55,940 (specific activity 101 Ci/mmol, Perkin Elmer) and different concentrations of compounds disclosed herein with membranes prepared as above from CHO-K1 cells expressing human CB2 receptor (1 μg of protein/well), 50 mM Tris-HCl (pH 7.4), 5 mM MgCl2, 1 mM CaCl2, and 2 mg/mL BSA.
For the single dose experiments, the compound stocks (usually 10 mM in DMSO) were diluted to working stocks in the binding buffer to give the final compound concentrations of 10 μM and 1 μM. For the dose-response experiments the test compounds were sequentially diluted to provide the desired concentration range for the IC50 determination. In each case the compounds were pre-incubated with the membrane for 20 min, before adding the radioligand.
After incubation with the radioligand for 60 min at 37° C., the incubation was terminated by rapid filtration of assay mixture through MultiScreen®HTS+96-well filter plates (Millipore, Cat. #MSFCNXB), pre-soaked for 60 min with 50 mM Tris-HCl (pH 7.4) containing 0.33% polyethylenimine (PEI). The nonspecific binding (NSB) was determined in the presence of 10 μM unlabelled CP55,940. After drying the filter plate at 50° C. for at least 60 min, the filter-bound radioactivity was determined by scintillation spectrometry using the 1450 MicroBeta Plate Counter (Perkin Elmer, Boston, Mass.). From the dose-response experiments, the IC50 values were determined (see Table 1, CB2 IC50).

[1] = 0.8 nM [3H]CP 55,940, membranes of CHO-K1 cells expressing human CB1 receptor, read-out: CB1 IC50
[2] = 0.6 nM [3H]CP55,940, membranes of CHO-K1 cells expressing human CB2 receptor, read-out: CB2 IC50

T1 sequence (P21554 whole entry): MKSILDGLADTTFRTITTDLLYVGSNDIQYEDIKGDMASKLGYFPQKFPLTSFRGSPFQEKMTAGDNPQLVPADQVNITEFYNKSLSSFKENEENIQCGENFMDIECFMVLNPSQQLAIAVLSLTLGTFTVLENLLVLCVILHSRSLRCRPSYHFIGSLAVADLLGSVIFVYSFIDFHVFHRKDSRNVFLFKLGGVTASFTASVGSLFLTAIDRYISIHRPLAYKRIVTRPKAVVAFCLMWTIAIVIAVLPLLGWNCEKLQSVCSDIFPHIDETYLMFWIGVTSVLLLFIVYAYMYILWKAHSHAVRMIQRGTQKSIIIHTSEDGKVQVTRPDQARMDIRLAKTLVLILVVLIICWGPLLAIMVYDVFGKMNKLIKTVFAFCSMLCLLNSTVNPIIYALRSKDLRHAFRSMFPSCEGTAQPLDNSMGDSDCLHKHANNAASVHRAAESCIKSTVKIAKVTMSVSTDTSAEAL

Row | Structure (SMILES) | IC50 (human CB1 receptor) [nM] | IC50 (human CB2 receptor) [nM] | Selectivity CB2 (human CB2 receptor) [fold] | IC50 (human CB1 receptor; [1]) [nM] | IC50 (human CB2 receptor; [2]) [nM]
1 | CCCCCc1cc(O)c(C/C=C(\C)CCC=C(C)C)c2c1C(=O)OC(CC(C)=O)(c1ccccc1)O2 (stereo not drawn) [Compound 12, 8-(3,7-dimethylocta-2,6-dien-1-yl)-7-hydroxy-2-(2-oxopropyl)-5-pentyl-2-phenyl-4H-benzo[d][1,3]dioxin-4-one] | 2500 to 4990 | < 1000 | 4.31 | – | –
2 | CCCCCc1cc(O)c(C/C=C(\C)CCC=C(C)C)c2c1C(=O)OC(CC(C)=O)(c1ccc(OC)cc1)O2 (stereo not drawn) [Compound 17, 8-(3,7-dimethylocta-2,6-dien-1-yl)-7-hydroxy-2-(4-methoxyphenyl)-2-(2-oxopropyl)-5-pentyl-4H-benzo[d][1,3]dioxin-4-one] | – | – | 5.45 | 2500 to 4990 | < 1000
3 | CCCc1cc(O)c(C/C=C(\C)CCC=C(C)C)c2c1C(=O)OC(c1ccccc1)O2 (stereo not drawn) [Compound 19, 8-(3,7-dimethylocta-2,6-dien-1-yl)-7-hydroxy-2-phenyl-5-propyl-4H-benzo[d][1,3]dioxin-4-one] | > 5000 | 1000 to 2490 | 3.92 | – | –
4 | CCCCCc1cc(O)c(C/C=C(\C)CCC=C(C)C)c2c1C(=O)OC(CC)O2 (stereo not drawn) [Compound 16, 8-(3,7-dimethylocta-2,6-dien-1-yl)-2-ethyl-7-hydroxy-5-pentyl-4H-benzo[d][1,3]dioxin-4-one] | – | – | 2.04 | 2500 to 4990 | 1000 to 2490
5 | CCCCCc1cc(O)c(C/C=C(\C)CCC=C(C)C)c2c1C(=O)OC(CC(C)=O)O2 (stereo not drawn) [Compound 14, 8-(3,7-dimethylocta-2,6-dien-1-yl)-7-hydroxy-2-(2-oxopropyl)-5-pentyl-4H-benzo[d][1,3]dioxin-4-one] | – | – | 2.64 | 2500 to 4990 | 1000 to 2490
6 | CCCCCc1cc(O)c(C/C=C(\C)CCC=C(C)C)c2c1C(=O)OC(C)(COC)O2 (stereo not drawn) [Compound 11, 8-(3,7-dimethylocta-2,6-dien-1-yl)-7-hydroxy-2-(methoxymethyl)-2-methyl-5-pentyl-4H-benzo[d][1,3]dioxin-4-one] | 2500 to 4990 | < 1000 | 4.46 | – | –
7 | CCCc1cc(O)c(C/C=C(\C)CCC=C(C)C)c2c1C(=O)OCO2 [Compound 18, 8-(3,7-dimethylocta-2,6-dien-1-yl)-7-hydroxy-5-propyl-4H-benzo[d][1,3]dioxin-4-one] | > 5000 | 1000 to 2490 | 3.88 | – | –
8 | CCCCCc1cc(O)c(C/C=C(\C)CCC=C(C)C)c2c1C(=O)OCO2 [Compound 1, 8-(3,7-dimethylocta-2,6-dien-1-yl)-7-hydroxy-5-pentyl-4H-benzo[d][1,3]dioxin-4-one] | – | – | 4.07 | > 5000 | 1000 to 2490
9 | CCCCCc1cc(O)c(C/C=C(\C)CCC=C(C)C)c2c1C(=O)OC(c1ccccc1)O2 (stereo not drawn) [Compound 3, 8-(3,7-dimethylocta-2,6-dien-1-yl)-7-hydroxy-5-pentyl-2-phenyl-4H-benzo[d][1,3]dioxin-4-one] | 1000 to 2490 | 1000 to 2490 | 1.19 | – | –
